By IC50 is commonly meant the midpoint of a concentration-inhibition curve.

These results are taken from ChEMBL document CHEMBL1130482, “Synthesis and activity of C2-substituted analogs of influenza neuraminidase inhibitor GS 4071” (Bioorg Med Chem Lett, 1997).

A short description of the assay: Concentration required for the inhibition of influenza neuraminidase activity by 50%. More on the design: species or system unidentified influenza virus.
The compound `CCC(CC)O[C@@H]1C(C)=C(C(=O)O)C[C@H](N)[C@H]1NC(C)=O` gave an IC50 of 2300 nM.

Take `CCC(CC)O[C@@H]1C(Cl)=C(C(=O)O)C[C@H](N)[C@H]1NC(C)=O`: 3100 nM corresponded to half-maximal inhibition (IC50).

`CCC(CC)O[C@@H]1C(SC)=C(C(=O)O)C[C@H](N)[C@H]1NC(C)=O` yielded an IC50 of 3400 nM. Under `CCC(CC)O[C@@H]1C=C(C(=O)O)C[C@H](N)[C@H]1NC(C)=O` [OSELTAMIVIR CARBOXYLATE] stands 1.4 nM.
